Tested on: NSPs (NE, PR3, CatG)
Test: PD recovery study, bone marrow NSP activities (all three NSPs), C57BL/6 mice
Type: in vivo
Conditions: after 8 days of 5 mg/kg BID
Description: A PD recovery study was performed in female C57BL/6 mice dosed BID for 8 consecutive days. Mice were dosed by oral gavage either with vehicle (0 mg/kg) or 5 mg/kg brensocatib (BID; 10 mg/kg/day). After 8 consecutive days of dosing, the animals were maintained without further treatment until prescribed sacrifice (days: 1, 3, 6, 8, and 10 days post final dose). Plasma was collected from animals during the first 24 h of dosing at −0.5 (half-hour prior to dosing), 1, 8, 9, and 24 h post initial dose. Note that the 8- and 24-h plasma samples were prior to the afternoon dose and prior to the second day dose, respectively. Plasma was used for PK analysis via LC-MS/MS. […]
Bone marrow lysates prepared as described above were diluted and plated onto 96-well assay plates to quantify NSP activities as described previously ([Basso et al., 2022]). […] The specific NSP activity in each sample was calculated as the total activity minus the activity in the presence of a specific NSP inhibitor (if used), including elastase inhibitor (Abcam) for NE, sivelestat (Abcam) for PR3, and cathepsin G inhibitor I (Cayman Chemical; Ann Arbor, MI) for CatG. […] A portion of each cell lysate sample was retained for protein quantification using a Pierce™ BCA Protein Assay Kit (Thermo Fisher). […]

Structure (SMILES): Cn1c(=O)oc2ccc(-c3ccc(C[C@@H](C#N)NC(=O)[C@@H]4CNCCCO4)cc3)cc21 [brensocatib]
- Time to full recovery of NSP activity (visually): 6–8 days post final dose

Source: publication PMC10394516, “The pharmacokinetic profile of brensocatib and its effect on pharmacodynamic biomarkers including NE, PR3, and CatG in various rodent species” (Frontiers in Pharmacology, 2023)
